The results in this text go back to ChEMBL document CHEMBL5260848, “Recent advancements in the development of bioactive pyrazoline derivatives” (Eur J Med Chem, 2020).

≈ marks a conversion by molar mass, not a printed value. A value given as a limit tells only on which side of the number the result lay.

Some targets named below: Acetylcholinesterase (Homo sapiens, UniProt P22303); Carbonic anhydrase 2 (Homo sapiens, UniProt P00918); Carbonic anhydrase 1 (Homo sapiens, UniProt P00915).
The test system of test [1] is Mycobacterium tuberculosis. The test can be described thus: microbe, parasite or virus in culture. The settings on record: H37Rv.
The test system of a further test is Plasmodium berghei. The test can be described thus: Antimalarial activity against Plasmodium berghei infected in mouse assessed as suppression percentage at 48.46 umol/kg administered daily relative to control. The settings on record: dose 48.46 µmol/kg. It counts as functional.
The test system of test [2] is Aspergillus niger. The test can be described thus: Antifungal activity against Aspergillus niger by agar dilution method. It counts as functional. In general terms: Agar dilution tests growth on a series of plates holding different concentrations.
For test [3], the species on record is Mus musculus. The test can be described thus: Antidepressant activity in Swiss albino mouse assessed as decrease in immobility time by forced swimming test. It counts as functional.
The species entered for test [4] is Mus musculus. The test can be described thus: Antidepressant activity in Swiss albino mouse assessed as decrease in immobility time by tail suspension test. Type of test: functional.
In another test the target is Carbonic anhydrase 12 (Homo sapiens, UniProt O43570). The test can be described thus: Inhibition of human CA12.
Chain of Carbonic anhydrase 12 (O43570 whole entry): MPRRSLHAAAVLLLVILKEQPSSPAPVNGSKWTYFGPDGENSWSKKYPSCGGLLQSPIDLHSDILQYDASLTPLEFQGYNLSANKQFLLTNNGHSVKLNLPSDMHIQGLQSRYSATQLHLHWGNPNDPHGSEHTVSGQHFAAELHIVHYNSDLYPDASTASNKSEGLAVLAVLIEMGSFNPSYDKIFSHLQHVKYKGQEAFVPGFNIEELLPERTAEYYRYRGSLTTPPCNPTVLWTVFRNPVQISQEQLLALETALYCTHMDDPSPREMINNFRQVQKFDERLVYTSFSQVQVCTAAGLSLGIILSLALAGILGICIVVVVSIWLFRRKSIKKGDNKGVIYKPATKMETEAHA
For test [5], the species on record is Mus musculus. The test can be described thus: Antidepressant activity in mouse assessed as […] by tail suspension test. It counts as functional.
Test [6] is filed under the species Mus musculus. The test can be described thus: Antianxiety activity in mouse assessed as increase in number of entries in different arms. It counts as functional.
Test [7] is filed under the species Mus musculus. The test can be described thus: Antidepressant activity in mouse assessed as […] by forced swimming test. Type of test: functional.
For test [8], the system named is Bordetella bronchiseptica. The test can be described thus: Antibacterial activity against Bordetella bronchiseptica ATCC 4617 by plate dilution method. It counts as functional.
Test [9] concerns Pseudomonas aeruginosa. The test can be described thus: Antibacterial activity against Pseudomonas aeruginosa ATCC 27853 by plate dilution method. Type of test: functional.
The subject of a further test is Enterococcus faecalis. The test can be described thus: Antibacterial activity against Enterococcus faecalis ATCC 29212 by plate dilution method. It counts as functional.
Test [10] concerns Escherichia coli. The test can be described thus: Antibacterial activity against Escherichia coli ATCC 25922 by plate dilution method. Type of test: functional.
Test [11] concerns Staphylococcus epidermidis. The test can be described thus: Antibacterial activity against Staphylococcus epidermidis ATCC 12228 by plate dilution method. Type of test: functional.
For test [12], the system named is Bacillus subtilis. The test can be described thus: Antibacterial activity against Bacillus subtilis ATCC 6633 by plate dilution method. It counts as functional.
The next test relates to Proteus vulgaris. The test can be described thus: Antibacterial activity against Proteus vulgaris ATCC 9920 by plate dilution method. Type of test: functional.
Test [13] concerns Staphylococcus aureus. The test can be described thus: Antibacterial activity against Staphylococcus aureus ATCC 25923 by plate dilution method. It counts as functional.
The subject of another test is Klebsiella pneumoniae. The test can be described thus: Antibacterial activity against Klebsiella pneumoniae ATCC 700603 by plate dilution method. It counts as functional.
For a further test, the system named is Bacillus cereus. The test can be described thus: Antibacterial activity against Bacillus cereus ATCC 9946 by plate dilution method. It counts as functional.
Another test addresses Tubulin (Homo sapiens) (UniProt P68371+Q9H4B7+P0DPH7+P68366+Q13509+Q71U36+P04350+Q3ZCM7+P07437+P68363+Q9BQE3+Q6PEY2+Q13885+Q9BVA1+Q9BUF5). The test can be described thus: Inhibition of tubulin polymerization (unknown origin) by fluorescence assay relative to control. Type of test: protein-complex assay. Conditions: concentration not given here.
A further test relates to DU-145. The test can be described thus: Cytotoxicity against human DU-145 cells by SRB assay. It counts as functional.
The next test addresses Carbonic anhydrase 9 (Homo sapiens, UniProt Q16790). The test can be described thus: Inhibition of human CA9.
The subject of test [14] is Escherichia coli. The test can be described thus: Antibacterial activity against Escherichia coli by agar dilution method. Type of test: functional.
The test system of test [15] is Staphylococcus aureus. The test can be described thus: Antibacterial activity against Staphylococcus aureus by agar dilution method. It counts as functional.
Test [16] has as its system Bacillus subtilis. The test can be described thus: Antibacterial activity against Bacillus subtilis by agar dilution method. It counts as functional.
The test system of test [17] is Pseudomonas aeruginosa. The test can be described thus: Antibacterial activity against Pseudomonas aeruginosa by agar dilution method. It counts as functional.
A further test relates to HepG2. The test can be described thus: Cytotoxicity against human HepG2 cells assessed as growth inhibition. Type of test: functional, cell-based.
In a further test the test system is Aspergillus flavus. The test can be described thus: Antifungal activity against Aspergillus flavus incubated for 24 hrs by disc diffusion method. It counts as functional. Background: Agar diffusion results depend on both activity and mobility in agar.
The test system of a further test is Aspergillus fumigatus. The test can be described thus: Antifungal activity against Aspergillus fumigatus incubated for 24 hrs by disc diffusion method. It counts as functional.
The subject of test [18] is Bacillus subtilis. The test can be described thus: microbe, parasite or virus in culture. Conditions: 24 h.
For test [19], the system named is Staphylococcus aureus. The test can be described thus: microbe, parasite or virus in culture. The settings on record: 24 h.
The test system of test [20] is Staphylococcus aureus. The test can be described thus: microbe, parasite or virus in culture.
Test [21] has as its system Candida albicans. The test can be described thus: microbe, parasite or virus in culture. Conditions: 24 h.
The test system of test [22] is Pseudomonas aeruginosa. The test can be described thus: microbe, parasite or virus in culture. The settings on record: 24 h.
Test [23] deals with Aspergillus niger. The test can be described thus: Antifungal activity against Aspergillus niger incubated for 24 hrs by disc diffusion method. It counts as functional.
The test system of test [24] is Escherichia coli. The test can be described thus: Antibacterial activity against Escherichia coli incubated for 24 hrs by disc diffusion method. It counts as functional.
The test system of test [25] is Candida albicans. The test can be described thus: microbe, parasite or virus in culture.

Chain of Acetylcholinesterase (P22303 whole entry): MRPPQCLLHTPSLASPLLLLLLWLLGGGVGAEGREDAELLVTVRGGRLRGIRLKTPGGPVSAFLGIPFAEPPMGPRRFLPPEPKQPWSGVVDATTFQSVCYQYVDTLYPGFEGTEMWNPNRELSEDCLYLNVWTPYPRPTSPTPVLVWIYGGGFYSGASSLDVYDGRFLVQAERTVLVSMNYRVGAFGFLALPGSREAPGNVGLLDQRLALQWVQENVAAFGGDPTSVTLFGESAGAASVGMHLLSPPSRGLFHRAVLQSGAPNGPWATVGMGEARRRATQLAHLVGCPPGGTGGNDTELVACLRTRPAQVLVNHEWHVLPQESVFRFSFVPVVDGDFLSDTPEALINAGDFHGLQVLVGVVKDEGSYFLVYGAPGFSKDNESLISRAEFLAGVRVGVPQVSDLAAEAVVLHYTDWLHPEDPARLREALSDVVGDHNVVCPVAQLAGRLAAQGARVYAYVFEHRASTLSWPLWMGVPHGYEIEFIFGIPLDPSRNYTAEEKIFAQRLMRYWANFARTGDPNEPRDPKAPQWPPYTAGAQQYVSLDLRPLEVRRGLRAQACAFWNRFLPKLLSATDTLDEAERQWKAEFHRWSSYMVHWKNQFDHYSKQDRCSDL
Chain of Carbonic anhydrase 1 (P00915 whole entry): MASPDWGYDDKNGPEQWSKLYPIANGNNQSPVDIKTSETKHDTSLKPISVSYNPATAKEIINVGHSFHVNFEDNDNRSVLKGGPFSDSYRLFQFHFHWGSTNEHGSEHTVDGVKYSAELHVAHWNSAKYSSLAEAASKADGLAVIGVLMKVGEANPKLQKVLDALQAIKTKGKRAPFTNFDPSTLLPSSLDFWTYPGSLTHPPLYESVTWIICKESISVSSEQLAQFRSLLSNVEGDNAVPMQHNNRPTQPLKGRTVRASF

Regarding `Cc1ccc2cc(C3CC(c4cc(Cl)sc4Cl)=NN3)c(Cl)nc2c1` (centres undefined), on Acetylcholinesterase, the IC50 (usually the midpoint of a concentration-inhibition curve) was 150 nM.

As for `O=C(/C=C/c1ccc(N2CCCCC2)cc1)c1sccc1Cl`, the half-maximal inhibitory concentration (IC50) against Acetylcholinesterase was found to be 160 nM.

On to `NNC(=O)c1ccncc1` [ISONIAZID], for which, in [1], the MIC is 6.25 µg/mL (≈ 45.6 µM).

In turn, `Cc1ccc2cc(C3CC(c4sccc4Cl)=NN3)c(Cl)nc2c1` (centres undefined) gave an IC50 against Acetylcholinesterase of 200 nM.

Take `CCC(=O)N1N=C(c2ccccc2)CC1c1cn(-c2ccccc2)nc1-c1ccc(C)cc1` (centres undefined): the Activity in the test on Plasmodium berghei was found to be 45.52%.

For the molecule `Cc1ccc2c(c1)cc(C1CC(c3cc(Br)ccc3O)=NN1)c1nnnn12` (centres undefined), the MIC against Aspergillus niger [2] came out at 25 µg/mL (≈ 59.1 µM).

Turning to `Cc1nc(-c2cc(F)cc(F)c2)ccc1C1=NNC(c2c(F)cccc2Cl)C1` (centres undefined), the figures for the Time in the test filed under Mus musculus [3] and in the test listed under Mus musculus [4] were 66.67 s and 70.33 s, respectively. For the same molecule, the MIC in test [1] worked out at 12.5 µg/mL (≈ 31.1 µM).

For `NS(=O)(=O)c1ccc(C(=O)N2N=C(c3ccccc3)CC2c2ccc(F)cc2)cc1` (centres undefined), the Ki – broadly, the equilibrium dissociation constant of an inhibitor or competing ligand from its target – at Carbonic anhydrase 2 is 31.7 nM; on Carbonic anhydrase 1, 87.8 nM; at Carbonic anhydrase 12, 7.1 nM.

On to `COc1ccc(C2CC(c3ccc(O)cc3)=NN2)cc1OC` (centres undefined), for which the Time in the test listed under Mus musculus [5] and in the test listed under Mus musculus [7] was 21.17 s each time. In the test filed under Mus musculus [6], the Activity worked out at 15.5.

For `O=c1oc2ccc(F)cc2cc1-c1csc(N2N=C(c3cccc(F)c3)CC2c2cc3ccccc3nc2Cl)n1` (centres undefined), the MIC (in [8]; in the test on Pseudomonas aeruginosa [9]; against Enterococcus faecalis; in the test on Escherichia coli [10]; in test [11]; against Bacillus subtilis [12]) was 50 µg/mL (≈ 87.6 µM) throughout. Further, the MIC in the test on Proteus vulgaris, against Staphylococcus aureus [13], in the test with Klebsiella pneumoniae and in the test on Bacillus cereus was 50 µg/mL (≈ 87.6 µM) in each case.

For the molecule `COc1ccc(/C=C/C(=O)c2cc(OC)c(OC)c(OC)c2)cc1OCc1cn(Cc2ccc(F)cc2)nn1`, on Tubulin (Homo sapiens), the inhibition – broadly, how much of the control response was suppressed – worked out at 51%. For the same molecule, it took 1300 nM to inhibit growth with DU-145 by half (GI50).

Take `COc1ccc(C2=NN(C(=O)c3ccc(S(N)(=O)=O)cc3)C(c3ccccc3)C2)c(OC)c1` (centres undefined): the Ki on Carbonic anhydrase 2 was 31.7 nM; on Carbonic anhydrase 1, 87.8 nM; at Carbonic anhydrase 12, 7.1 nM; at Carbonic anhydrase 9 it was 5.5 nM.

For `Cc1ccc(-c2nn(-c3ccccc3)cc2C2CC(c3cccs3)=NN2)cc1` (centres undefined), the Activity with Plasmodium berghei was determined as 63.4%.

As to `COc1ccc(C2CC(c3ccc(-c4cc(F)cc(F)c4)nc3C)=NN2)cc1OC` (centres undefined), the values for the Time in the test listed under Mus musculus [3] and in the test listed under Mus musculus [4] were 66.67 s and 70.33 s, respectively. In addition, the MIC in test [1] turned out to be 12.5 µg/mL (≈ 30.5 µM).

As to `Oc1ccc(C2=NNC(c3ccc(Cl)cc3)C2)cc1` (centres undefined), the Time in the test filed under Mus musculus [5] and in the test listed under Mus musculus [7] was 21.17 s each time. In addition, the Activity in the test listed under Mus musculus [6] was determined as 17.67.

As for `Oc1ccc(Br)cc1C1=NOC(c2cc3ccccc3n3nnnc23)C1` (centres undefined), the MIC with Escherichia coli [14], in the test on Staphylococcus aureus [15], against Bacillus subtilis [16] and with Pseudomonas aeruginosa [17] was 25 µg/mL (≈ 60.9 µM) in each case.

Take `Fc1ccc(-c2csc(N3N=C(c4cccs4)CC3c3ccc(Cl)cc3Cl)n2)cc1` (centres undefined): in the test with HepG2, the IC50 was 1700 nM.

Take `O=c1oc2ccc(I)cc2cc1-c1csc(N2N=C(c3ccccc3F)CC2c2cc3ccccc3nc2Cl)n1` (centres undefined): in test [8], the MIC was 50 µg/mL (≈ 73.6 µM).

For the molecule `OC(Cn1cncn1)(Cn1cncn1)c1ccc(F)cc1F` [FLUCONAZOLE], the MIC in the test with Aspergillus flavus was 30 µg/mL (≈ 98 µM); in the test on Aspergillus fumigatus, 30 µg/mL (≈ 98 µM); against Bacillus subtilis [18], 30 µg/mL (≈ 98 µM); in the test with Staphylococcus aureus [19], 30 µg/mL (≈ 98 µM); against Staphylococcus aureus [20], < 10 µg/mL; with Candida albicans [21], 30 µg/mL (≈ 98 µM). Moreover, the MIC is 30 µg/mL (≈ 98 µM) against Pseudomonas aeruginosa [22], 30 µg/mL (≈ 98 µM) against Aspergillus niger [23], 30 µg/mL (≈ 98 µM) in the test with Escherichia coli [24] and < 10 µg/mL against Candida albicans [25].
